Measured values taken from BindingDB's records for doi:10.1021/jm051134w (Parion Sciences, 2006).

molecular target: Amiloride-sensitive sodium channel (Canis familiaris); assay: Inhibition of dog bronchi prototypical epithelial sodium channel by electrophysiological assay

First: NC(=NCCCCc1ccc(N)cc1)NC(=O)c1nc(Cl)c(N)nc1N [1-(4-(4-aminophenyl)butyl)-3-(3,5-diamino-2-chloropyrazine-6-carbonyl)guanidine]
Second: NC(=NCCCCc1ccc(CO)cc1)NC(=O)c1nc(Cl)c(N)nc1N [N-(3,5-diamino-6-chloropyrazine-2-carbonyl)-N'-[4-(4-hydroxymethylphenyl)-butyl]guanidine]
The IC50 of the first is 1.5-fold higher: 0.021 µM for the first, 0.014 µM for the second.

Going from `COC(=O)c1ccc(CCCCN=C(N)NC(=O)c2nc(Cl)c(N)nc2N)cc1` [4-{4-[N'-(3,5-diamino-6-chloropyrazine-2-carbonyl)guanidino]-butyl}benzoic acid methyl ester] to `NC(=NCCCCc1ccc(C(=O)O)cc1)NC(=O)c1nc(Cl)c(N)nc1N` [4-{4-[N'-(3,5-diamino-6-chloropyrazine-2-carbonyl)guanidino]-butyl}benzoic acid], the IC50 rises from 0.022 µM to 0.051 µM (2.3-fold).

Going from `NC(=NCCCCc1ccc(OC2O[C@H](C(=O)O)[C@@H](O)[C@H](O)[C@H]2O)cc1)NC(=O)c1nc(Cl)c(N)nc1N` (stereo not given in full) [6-(4-{4-[N'-(3,5-diamino-6-chloropyrazine-2-carbonyl)-guanidino]butyl}phenoxy)-3,4,5-trihydroxytetrahydropyran-2-carboxylic acid] to `COc1ccc(CCCCN=C(N)NC(=O)c2nc(Cl)c(N)nc2N)cc1` [N-(3,5-diamino-6-chloropyrazine-2-carbonyl)-N'-[4-(4-methoxyphenyl)butyl]-guanidine], the IC50 falls from 0.073 µM to 0.015 µM (4.9-fold).

`NC(=NCCCCc1ccccc1OCC(O)CO)NC(=O)c1nc(Cl)c(N)nc1N` (stereo not given) [N-(3,5-diamino-6-chloropyrazine-2-carbony)-N'-{4-[2-(2,3-dihydroxypropoxy)-phenyl]butyl}guanidine] and `NC(=NCCCCc1ccccc1OCCO)NC(=O)c1nc(Cl)c(N)nc1N` [N-(3,5-diamino-6-chloropyrazine-2-carbonyl)-N'-{4-[2-(2-hydroxyethoxy)phenyl]-butyl}guanidine] are within 1.5-fold of each other in IC50: 0.028 µM for the first, 0.031 µM for the second.

First: NC(=NCCCCc1cccc(OCC(O)CO)c1)NC(=O)c1nc(Cl)c(N)nc1N (stereo not given) [N-(3,5-diamino-6-chloropyrazine-2-carbony)-N'-{4-[3-(2,3-dihydroxypropoxy)-phenyl]butyl}guanidine]
Second: NC(=NCCCCc1cccc(OCCO)c1)NC(=O)c1nc(Cl)c(N)nc1N [N-(3,5-diamino-6-chloropyrazine-2-carbonyl)-N'-{4-[3-(2-hydroxyethoxy)phenyl]-butyl}guanidine]
The IC50 of the first is 1.5-fold higher: 0.026 µM for the first, 0.017 µM for the second. The second is the more potent here.

`NC(=NCCO)NC(=O)c1nc(Cl)c(N)nc1N` [N-(3,5-diamino-6-chloropyrazine-2-carbonyl)-N'-(2-hydroxyethyl)guanidine] and `CCCCCCN=C(N)NC(=O)c1nc(Cl)c(N)nc1N` [N-(3,5-diamino-6-chloropyrazine-2-carbonyl)-N'-hexylguanidine] are within 1.5-fold of each other in IC50: 0.107 µM for the first, 0.087 µM for the second.

Compared with `NC(=NCCCCc1ccccc1)NC(=O)c1nc(Cl)c(N)nc1N` [N-(3,5-diamino-6-chloropyrazine-2-carbonyl)-N'-(4-phenylbutyl)guanidine], `NC(=NCCCCCc1ccccc1)NC(=O)c1nc(Cl)c(N)nc1N` [N-(3,5-diamino-6-chloropyrazine-2-carbonyl)-N'-(5-phenylpentyl)guanidine] is 2.3-fold higher in IC50: 0.029 µM for the first, 0.068 µM for the second.

First: NC(=NCCCCCCCCc1ccccc1)NC(=O)c1nc(Cl)c(N)nc1N [N-(3,5-diamino-6-chloropyrazine-2-carbonyl)-N'-(8-phenyloctyl)guanidine]
Second: NC(=NCCCCc1cccc(O)c1)NC(=O)c1nc(Cl)c(N)nc1N [N-(3,5-diamino-6-chloropyrazine-2-carbonyl)-N'-[4-(5-hydroxyphenyl)butyl]-guanidine]
The IC50 of the first is 24-fold higher: 0.477 µM for the first, 0.02 µM for the second. The second is the more potent here.

`NC(=NCCc1ccc(O)cc1)NC(=O)c1nc(Cl)c(N)nc1N` [N-(3,5-diamino-6-chloropyrazine-2-carbonyl)-N'-[2-(4-hydroxyphenyl)ethyl]-guanidine] and `NC(=NCCCc1ccc(O)cc1)NC(=O)c1nc(Cl)c(N)nc1N` [N-(3,5-diamino-6-chloropyrazine-2-carbonyl)-N'-[3-(4-hydroxyphenyl)propyl]-guanidine] are within 1.5-fold of each other in IC50: 0.062 µM for the first, 0.088 µM for the second.

First: COc1ccc(COCCN=C(N)NC(=O)c2nc(Cl)c(N)nc2N)cc1 [N-(3,5-diamino-6-chloropyrazine-2-carbonyl)-N'-[2-(4-methoxybenzyloxy)ethyl]-guanidine]
Second: COc1ccc(CCCN=C(N)NC(=O)c2nc(Cl)c(N)nc2N)cc1 [N-(3,5-diamino-6-chloropyrazine-2-carbonyl)-N'-[3-(4-methoxyphenyl)propyl]-guanidine]
The IC50 of the first is 3-fold lower: 0.041 µM for the first, 0.124 µM for the second.

Going from `NC(=NCCCOc1ccc(O)cc1)NC(=O)c1nc(Cl)c(N)nc1N` [N-(3,5-diamino-6-chloropyrazine-2-carbonyl)-N'-[3-(4-hydroxyphenoxy)propyl]-guanidine] to `NC(=NCCCCc1ccc(OCCO)cc1)NC(=O)c1nc(Cl)c(N)nc1N` [N-(3,5-diamino-6-chloropyrazine-2-carbonyl)-N'-{4-[4-(2-hydroxyethoxy)phenyl]-butyl}guanidine], the IC50 falls from 0.032 µM to 0.009 µM (3.6-fold).

First: COc1ccc(CCCCCN=C(N)NC(=O)c2nc(Cl)c(N)nc2N)cc1 [N-(3,5-diamino-6-chloropyrazine-2-carbonyl)-N'-[5-(4-methoxyphenyl)pentyl]-guanidine]
Second: NC(=NCCCCc1ccc(OCCCO)cc1)NC(=O)c1nc(Cl)c(N)nc1N [N-(3,5-diamino-6-chloropyrazine-2-carbonyl)-N'-{4-[4-(3-hydroxypropoxy)phenyl]-butyl}guanidine]
The IC50 of the first is 11-fold higher: 0.077 µM for the first, 0.007 µM for the second. The second is the more potent here.

`CCCCCCCCN=C(N)NC(=O)c1nc(Cl)c(N)nc1N` [N-(3,5-diamino-6-chloropyrazine-2-carbonyl)-N'-octylguanidine] gave an IC50 of 0.108 µM.
